From US20120122860A1, “SOLID FORMS OF SULFONAMIDES AND AMINO ACIDS” (Plexxikon, Inc., priority 2009, published 2012)

Assays:
B-Raf = B-Raf (Homo sapiens, UniProt P15056); experiment: Kinase activity assay, B-Raf; format: biochemical; details: read-out: activity toward kinase B-Raf, IC50
A-Raf = biological target: T1, A-Raf (Homo sapiens, UniProt P10398); experiment: Kinase activity assay, A-Raf
T1 sequence (P10398 1-606): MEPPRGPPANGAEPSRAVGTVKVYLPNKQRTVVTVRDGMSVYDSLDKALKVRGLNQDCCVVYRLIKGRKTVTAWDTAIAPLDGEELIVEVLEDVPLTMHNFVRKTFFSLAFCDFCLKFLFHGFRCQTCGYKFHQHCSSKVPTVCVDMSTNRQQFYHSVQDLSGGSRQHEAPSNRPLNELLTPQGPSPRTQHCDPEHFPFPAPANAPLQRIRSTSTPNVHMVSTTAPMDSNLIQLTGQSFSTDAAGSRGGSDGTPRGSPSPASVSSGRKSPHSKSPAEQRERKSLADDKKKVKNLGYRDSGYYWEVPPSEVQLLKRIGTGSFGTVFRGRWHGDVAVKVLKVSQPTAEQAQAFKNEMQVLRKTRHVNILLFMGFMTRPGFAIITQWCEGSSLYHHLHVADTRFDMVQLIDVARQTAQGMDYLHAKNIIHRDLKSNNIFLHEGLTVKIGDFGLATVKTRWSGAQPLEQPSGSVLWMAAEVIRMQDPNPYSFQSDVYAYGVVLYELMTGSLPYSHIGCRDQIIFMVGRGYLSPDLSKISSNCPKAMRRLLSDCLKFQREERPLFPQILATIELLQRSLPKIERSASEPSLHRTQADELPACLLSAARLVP

Kdr = Kdr (Homo sapiens, UniProt P35968); experiment: Kinase activity assay, Kdr
Src = Src (Homo sapiens, UniProt P12931); experiment: Kinase activity assay, Src
C-Raf = C-Raf (Homo sapiens, UniProt P04049); experiment: Kinase activity assay, C-Raf
TEC = biological target: T2, TEC (Homo sapiens, UniProt P42680); experiment: Kinase activity assay, TEC
T2 sequence (P42680 1-631): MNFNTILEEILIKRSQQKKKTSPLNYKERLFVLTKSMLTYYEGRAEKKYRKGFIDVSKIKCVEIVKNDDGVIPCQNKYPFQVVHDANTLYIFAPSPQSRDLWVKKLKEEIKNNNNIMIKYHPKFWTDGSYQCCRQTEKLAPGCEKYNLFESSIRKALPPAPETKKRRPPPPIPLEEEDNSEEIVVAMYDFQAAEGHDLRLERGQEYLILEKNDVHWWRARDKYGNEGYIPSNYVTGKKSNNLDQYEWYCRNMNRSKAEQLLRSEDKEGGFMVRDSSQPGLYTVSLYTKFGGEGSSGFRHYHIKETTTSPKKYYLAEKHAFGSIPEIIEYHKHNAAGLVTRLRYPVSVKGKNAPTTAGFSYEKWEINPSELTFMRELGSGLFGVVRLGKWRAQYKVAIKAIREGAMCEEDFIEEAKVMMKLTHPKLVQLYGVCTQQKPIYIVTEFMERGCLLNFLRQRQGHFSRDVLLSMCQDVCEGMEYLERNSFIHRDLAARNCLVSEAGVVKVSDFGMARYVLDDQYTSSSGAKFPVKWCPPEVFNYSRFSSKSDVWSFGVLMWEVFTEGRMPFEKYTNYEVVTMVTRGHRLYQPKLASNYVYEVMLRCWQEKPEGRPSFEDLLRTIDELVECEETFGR

MAP4K4 = MAP4K4 (Homo sapiens, UniProt O95819); experiment: Kinase activity assay, MAP4K4
B-Raf V600E = B-Raf V600E (Homo sapiens, UniProt P15056, V600E); experiment: Kinase activity assay, B-Raf V600E; format: biochemical; details: read-out: activity toward kinase B-Raf V600E, IC50
Btk = Btk (Homo sapiens, UniProt Q06187); experiment: Kinase activity assay, Btk
Fms = Fms (Homo sapiens, UniProt P07333); experiment: Kinase activity assay, Fms
Kit = Kit (Homo sapiens, UniProt P10721); experiment: Kinase activity assay, Kit

Measured: IC50

Chain of B-Raf V600E (P15056 whole entry V600E): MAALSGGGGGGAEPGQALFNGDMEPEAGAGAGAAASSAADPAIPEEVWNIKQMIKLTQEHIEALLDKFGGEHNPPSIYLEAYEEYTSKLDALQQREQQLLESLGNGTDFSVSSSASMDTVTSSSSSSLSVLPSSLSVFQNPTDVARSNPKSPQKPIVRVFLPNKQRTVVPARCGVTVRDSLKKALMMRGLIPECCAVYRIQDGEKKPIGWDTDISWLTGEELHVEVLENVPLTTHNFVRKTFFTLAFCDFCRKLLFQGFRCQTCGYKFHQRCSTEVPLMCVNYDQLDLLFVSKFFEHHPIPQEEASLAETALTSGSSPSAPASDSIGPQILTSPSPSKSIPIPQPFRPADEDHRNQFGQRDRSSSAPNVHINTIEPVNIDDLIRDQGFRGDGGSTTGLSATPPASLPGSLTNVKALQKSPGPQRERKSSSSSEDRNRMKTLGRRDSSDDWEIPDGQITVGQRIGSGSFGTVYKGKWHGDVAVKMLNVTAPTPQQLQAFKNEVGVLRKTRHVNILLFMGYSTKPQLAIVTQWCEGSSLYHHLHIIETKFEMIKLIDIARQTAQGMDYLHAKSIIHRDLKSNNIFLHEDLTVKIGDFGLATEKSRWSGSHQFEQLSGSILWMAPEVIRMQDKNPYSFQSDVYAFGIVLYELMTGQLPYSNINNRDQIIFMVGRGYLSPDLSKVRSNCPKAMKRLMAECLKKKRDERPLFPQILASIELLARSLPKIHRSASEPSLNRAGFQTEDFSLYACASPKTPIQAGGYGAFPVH
Chain of Src (P12931 whole entry): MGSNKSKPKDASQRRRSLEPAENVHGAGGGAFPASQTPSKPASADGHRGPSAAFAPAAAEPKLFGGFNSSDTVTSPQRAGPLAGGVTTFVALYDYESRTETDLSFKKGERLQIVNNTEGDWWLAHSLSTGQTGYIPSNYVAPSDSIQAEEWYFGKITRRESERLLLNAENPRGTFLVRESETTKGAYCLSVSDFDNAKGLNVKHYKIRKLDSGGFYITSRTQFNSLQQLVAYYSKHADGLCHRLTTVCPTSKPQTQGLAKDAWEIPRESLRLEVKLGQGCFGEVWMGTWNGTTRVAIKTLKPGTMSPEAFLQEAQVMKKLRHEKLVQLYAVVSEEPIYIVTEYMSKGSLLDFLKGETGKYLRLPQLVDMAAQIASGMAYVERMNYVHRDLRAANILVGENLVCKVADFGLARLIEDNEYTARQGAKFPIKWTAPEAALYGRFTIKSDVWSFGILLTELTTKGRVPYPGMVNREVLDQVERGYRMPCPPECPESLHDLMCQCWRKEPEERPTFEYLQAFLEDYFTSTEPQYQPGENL
Chain of Kdr (P35968 20-1356): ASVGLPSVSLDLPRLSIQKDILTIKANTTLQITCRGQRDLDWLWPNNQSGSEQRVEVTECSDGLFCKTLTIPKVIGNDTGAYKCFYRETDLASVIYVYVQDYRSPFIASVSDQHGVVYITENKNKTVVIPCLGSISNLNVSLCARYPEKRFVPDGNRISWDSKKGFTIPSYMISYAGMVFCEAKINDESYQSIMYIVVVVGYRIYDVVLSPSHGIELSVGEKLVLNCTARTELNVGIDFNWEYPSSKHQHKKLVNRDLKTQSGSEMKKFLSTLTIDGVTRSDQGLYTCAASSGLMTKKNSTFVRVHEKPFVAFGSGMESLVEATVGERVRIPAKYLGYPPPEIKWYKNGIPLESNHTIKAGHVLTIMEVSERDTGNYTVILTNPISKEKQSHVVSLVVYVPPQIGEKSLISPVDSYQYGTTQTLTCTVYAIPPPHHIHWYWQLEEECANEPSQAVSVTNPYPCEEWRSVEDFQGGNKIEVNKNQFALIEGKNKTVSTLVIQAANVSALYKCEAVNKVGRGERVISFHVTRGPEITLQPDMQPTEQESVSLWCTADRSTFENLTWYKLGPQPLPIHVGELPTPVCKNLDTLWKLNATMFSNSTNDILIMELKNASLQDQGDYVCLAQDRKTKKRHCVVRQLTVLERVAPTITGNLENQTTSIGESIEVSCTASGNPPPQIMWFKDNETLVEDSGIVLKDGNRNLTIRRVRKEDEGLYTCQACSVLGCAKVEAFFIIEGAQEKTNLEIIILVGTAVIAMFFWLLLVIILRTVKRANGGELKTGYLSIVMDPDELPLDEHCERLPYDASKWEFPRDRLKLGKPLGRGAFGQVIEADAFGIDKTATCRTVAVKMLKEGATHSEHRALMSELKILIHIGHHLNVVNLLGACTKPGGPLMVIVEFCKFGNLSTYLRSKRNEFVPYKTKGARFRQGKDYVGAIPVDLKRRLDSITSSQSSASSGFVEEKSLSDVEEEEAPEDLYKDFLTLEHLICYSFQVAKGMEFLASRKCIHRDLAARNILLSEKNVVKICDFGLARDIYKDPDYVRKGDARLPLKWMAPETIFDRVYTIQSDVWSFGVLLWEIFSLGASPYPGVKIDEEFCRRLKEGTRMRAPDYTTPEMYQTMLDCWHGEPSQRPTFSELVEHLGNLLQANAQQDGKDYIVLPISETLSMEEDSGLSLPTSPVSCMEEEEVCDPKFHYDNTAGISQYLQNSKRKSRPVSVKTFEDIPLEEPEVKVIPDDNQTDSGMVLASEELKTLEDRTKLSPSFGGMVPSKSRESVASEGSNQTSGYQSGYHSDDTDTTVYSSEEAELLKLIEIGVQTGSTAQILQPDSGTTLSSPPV
Chain of Btk (Q06187 whole entry): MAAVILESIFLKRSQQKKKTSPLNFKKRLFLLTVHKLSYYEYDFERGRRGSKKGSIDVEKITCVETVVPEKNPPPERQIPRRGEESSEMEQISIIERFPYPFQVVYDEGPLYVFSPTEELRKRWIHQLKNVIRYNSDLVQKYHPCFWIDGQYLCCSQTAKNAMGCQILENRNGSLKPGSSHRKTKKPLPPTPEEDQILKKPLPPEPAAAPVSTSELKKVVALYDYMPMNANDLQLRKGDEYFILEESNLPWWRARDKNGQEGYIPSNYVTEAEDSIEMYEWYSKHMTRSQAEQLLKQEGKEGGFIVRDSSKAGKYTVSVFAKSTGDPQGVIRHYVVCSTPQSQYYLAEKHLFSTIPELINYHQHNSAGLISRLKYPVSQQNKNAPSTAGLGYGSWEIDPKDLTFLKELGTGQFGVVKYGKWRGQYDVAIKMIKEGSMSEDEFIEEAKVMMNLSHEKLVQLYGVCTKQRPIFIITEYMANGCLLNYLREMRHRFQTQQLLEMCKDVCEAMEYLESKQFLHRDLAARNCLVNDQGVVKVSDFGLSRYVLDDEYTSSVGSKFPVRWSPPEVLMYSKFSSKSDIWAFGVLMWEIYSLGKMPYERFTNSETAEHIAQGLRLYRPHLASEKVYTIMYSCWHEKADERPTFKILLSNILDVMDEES
Chain of Kit (P10721 26-976): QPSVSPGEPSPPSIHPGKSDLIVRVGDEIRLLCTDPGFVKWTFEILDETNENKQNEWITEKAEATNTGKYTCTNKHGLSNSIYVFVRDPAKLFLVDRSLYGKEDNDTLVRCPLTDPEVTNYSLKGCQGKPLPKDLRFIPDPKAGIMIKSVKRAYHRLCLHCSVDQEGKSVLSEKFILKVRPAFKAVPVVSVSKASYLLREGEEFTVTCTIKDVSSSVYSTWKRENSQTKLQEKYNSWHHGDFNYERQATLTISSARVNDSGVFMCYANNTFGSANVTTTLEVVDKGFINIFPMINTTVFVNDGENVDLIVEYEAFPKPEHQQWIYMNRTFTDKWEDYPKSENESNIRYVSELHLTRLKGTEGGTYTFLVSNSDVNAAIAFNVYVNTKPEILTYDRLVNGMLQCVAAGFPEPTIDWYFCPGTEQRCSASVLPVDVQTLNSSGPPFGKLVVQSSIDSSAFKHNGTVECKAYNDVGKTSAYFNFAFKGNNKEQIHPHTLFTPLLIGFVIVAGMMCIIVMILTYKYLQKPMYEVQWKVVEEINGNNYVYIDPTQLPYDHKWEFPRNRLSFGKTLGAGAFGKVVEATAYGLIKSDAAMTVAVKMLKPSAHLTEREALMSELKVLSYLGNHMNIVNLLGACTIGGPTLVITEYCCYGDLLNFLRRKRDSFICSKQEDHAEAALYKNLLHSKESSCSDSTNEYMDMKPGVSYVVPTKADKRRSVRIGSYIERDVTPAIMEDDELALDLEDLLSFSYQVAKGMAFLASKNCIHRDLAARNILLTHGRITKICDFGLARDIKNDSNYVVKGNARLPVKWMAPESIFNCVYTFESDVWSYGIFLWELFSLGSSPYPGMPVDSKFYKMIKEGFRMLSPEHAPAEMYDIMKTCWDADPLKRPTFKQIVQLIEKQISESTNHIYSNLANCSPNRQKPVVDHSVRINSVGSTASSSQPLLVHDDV
Chain of B-Raf (P15056 whole entry): as the sequence (P15056 whole entry V600E) above, with E600V counted along it
Chain of C-Raf (P04049 whole entry): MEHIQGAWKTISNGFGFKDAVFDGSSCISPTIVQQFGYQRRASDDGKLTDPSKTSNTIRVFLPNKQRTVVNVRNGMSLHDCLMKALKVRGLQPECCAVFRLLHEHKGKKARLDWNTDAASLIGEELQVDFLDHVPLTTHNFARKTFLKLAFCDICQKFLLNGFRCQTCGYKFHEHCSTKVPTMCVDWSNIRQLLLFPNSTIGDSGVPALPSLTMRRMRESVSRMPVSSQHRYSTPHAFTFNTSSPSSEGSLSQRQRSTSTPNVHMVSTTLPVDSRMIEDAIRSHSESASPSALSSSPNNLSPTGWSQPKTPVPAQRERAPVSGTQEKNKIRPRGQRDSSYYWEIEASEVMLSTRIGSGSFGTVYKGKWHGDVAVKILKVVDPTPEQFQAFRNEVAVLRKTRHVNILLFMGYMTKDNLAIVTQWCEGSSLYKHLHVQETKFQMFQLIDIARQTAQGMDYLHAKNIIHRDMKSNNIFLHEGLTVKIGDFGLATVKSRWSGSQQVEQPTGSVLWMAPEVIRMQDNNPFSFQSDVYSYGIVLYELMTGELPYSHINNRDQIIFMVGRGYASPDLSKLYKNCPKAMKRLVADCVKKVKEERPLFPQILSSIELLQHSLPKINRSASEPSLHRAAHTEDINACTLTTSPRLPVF

O=C(c1c(F)ccc(NS(=O)(=O)c2ccccn2)c1F)c1c[nH]c2ncc(Cl)cc12 [P-2067, Pyridine-2-sulfonic acid [3-(5-chloro-1H-pyrrolo[2,3-b]pyridine-3-carbonyl)-2,4-difluoro-phenyl]-amide]
not listed: Btk | Fms | Kit
≤ 10 µM: all other assays above

N#Cc1cnc2[nH]cc(C(=O)c3cccc(NS(=O)(=O)c4cccnc4)c3F)c2c1 [P-2086, Pyridine-3-sulfonic acid [3-(5-cyano-1H-pyrrolo[2,3-b]pyridine-3-carbonyl)-2-fluoro-phenyl]-amide]
≤ 10 µM: Btk

Cn1cc(-c2cnc3[nH]cc(C(=O)c4cc(NS(=O)(=O)c5cccc(OC(F)(F)F)c5)ccc4F)c3c2)cn1 [P-2102, N-{4-Fluoro-3-[5-(1-methyl-1H-pyrazol-4-yl)-1H-pyrrolo[2,3-b]pyridine-3-carbonyl]-phenyl}-3-trifluoromethoxy-benzenesulfonamide]
not listed: A-Raf | C-Raf | TEC | MAP4K4
≤ 10 µM: all other assays above

O=C(c1cc(NS(=O)(=O)c2ccc(F)cc2)ccc1F)c1c[nH]c2ncccc12 [P-2114, 4-Fluoro-N-[4-fluoro-3-(1H-pyrrolo[2,3-b]pyridine-3-carbonyl)-phenyl]-benzenesulfonamide]
≤ 10 µM: Fms | Kdr | Btk | Kit

CCCS(=O)(=O)Nc1ccc(F)c(C(=O)c2c[nH]c3ncc(-c4cnn(CC(C)C)c4)cc23)c1F [P-2157, Propane-1-sulfonic acid {2,4-difluoro-3-[5-(1-isobutyl-1H-pyrazol-4-yl)-1H-pyrrolo[2,3-b]pyridine-3-carbonyl]-phenyl}-amide]
≤ 10 µM: Fms | Kdr | Src | Btk | Kit | B-Raf V600E

CCCS(=O)(=O)Nc1ccc(F)c(C(=O)c2c[nH]c3ncc(-c4c(C)nn(C)c4C)cc23)c1F [P-2158, Propane-1-sulfonic acid {2,4-difluoro-3-[5-(1,3,5-trimethyl-1H-pyrazol-4-yl)-1H-pyrrolo[2,3-b]pyridine-3-carbonyl]-phenyl}-amide]
≤ 10 µM: Fms | Kdr | Src | Btk | Kit | B-Raf V600E

CCCS(=O)(=O)Nc1ccc(F)c(C(=O)c2c[nH]c3ncc(-c4ccc(F)c(OC)c4)cc23)c1F [P-2159, Propane-1-sulfonic acid {2,4-difluoro-3-[5-(4-fluoro-3-methoxy-phenyl)-1H-pyrrolo[2,3-b]pyridine-3-carbonyl]-phenyl}-amide]
≤ 10 µM: Fms | Kdr | Src | Btk | Kit | B-Raf V600E

CCCS(=O)(=O)Nc1ccc(F)c(C(=O)c2c[nH]c3ncc(-c4ccc(F)c(C(F)(F)F)c4)cc23)c1F [P-2160, Propane-1-sulfonic acid {2,4-difluoro-3-[5-(4-fluoro-3-trifluoromethyl-phenyl)-1H-pyrrolo[2,3-b]pyridine-3-carbonyl]-phenyl}-amide]
≤ 10 µM: Kdr | Btk | B-Raf V600E

O=C(c1c(F)ccc(NS(=O)(=O)C2CCC2)c1F)c1c[nH]c2ncc(Cl)cc12 [P-2354, Cyclobutanesulfonic acid [3-(5-chloro-1H-pyrrolo[2,3-b]pyridine-3-carbonyl)-2,4-difluoro-phenyl]-amide]
not listed: Btk | Fms
≤ 10 µM: all other assays above

CCS(=O)(=O)Nc1cccc(C(=O)c2c[nH]c3ncc(C#N)cc23)c1F [P-2410, Ethanesulfonic acid [3-(5-cyano-1H-pyrrolo[2,3-b]pyridine-3-carbonyl)-2-fluoro-phenyl]-amide]
≤ 10 µM: C-Raf | Btk | B-Raf V600E

CCCS(=O)(=O)Nc1ccc(F)c(C(=O)c2c[nH]c3ncc(-c4cnn(C)c4)cc23)c1Cl [P-2429, Propane-1-sulfonic acid {2-chloro-4-fluoro-3-[5-(1-methyl-1H-pyrazol-4-yl)-1H-pyrrolo[2,3-b]pyridine-3-carbonyl]-phenyl}-amide]
≤ 10 µM: Fms | Src | Btk | B-Raf V600E

Cn1cc(-c2cnc3[nH]cc(C(=O)c4cc(NS(=O)(=O)C5CC5)ccc4F)c3c2)cn1 [P-2433, Cyclopropanesulfonic acid {4-fluoro-3-[5-(1-methyl-1H-pyrazol-4-yl)-1H-pyrrolo[2,3-b]pyridine-3-carbonyl]-phenyl}-amide]
≤ 10 µM: Fms | Kdr | Src | Btk | Kit | B-Raf V600E

CCCS(=O)(=O)Nc1cccc(C(=O)c2c[nH]c3ncc(Cl)cc23)c1 [P-2449, Propane-1-sulfonic acid [3-(5-chloro-1H-pyrrolo[2,3-b]pyridine-3-carbonyl)-phenyl]-amide]
≤ 10 µM: Fms | Kdr | Btk | Kit | B-Raf V600E

Cn1cc(-c2cnc3[nH]cc(C(=O)c4cccc(NS(=O)(=O)C5CC5)c4)c3c2)cn1 [P-2456, Cyclopropanesulfonic acid {3-[5-(1-methyl-1H-pyrazol-4-yl)-1H-pyrrolo[2,3-b]pyridine-3-carbonyl]-phenyl}-amide]
≤ 10 µM: Fms | Kdr | Btk | Kit | B-Raf V600E

CN(C)S(=O)(=O)Nc1ccc(F)c(C(=O)c2c[nH]c3ncccc23)c1 [P-2469, N,N-dimethylamino-sulfonic acid [4-fluoro-3-(1H-pyrrolo[2,3-b]pyridine-3-carbonyl)-phenyl]-amide]
≤ 10 µM: Fms | Kdr | Btk
